In publication PMC7088215 (The Protein Journal, 2015):

How the values were obtained:
SaPriA (PriA helicase) [1] = biological target: T1, SaPriA (PriA helicase) (Staphylococcus aureus, UniProt Q2G266); experiment: intrinsic fluorescence quenching titration of purified SaPriA; assay type: binding
T1 sequence (Q2G266 1-802): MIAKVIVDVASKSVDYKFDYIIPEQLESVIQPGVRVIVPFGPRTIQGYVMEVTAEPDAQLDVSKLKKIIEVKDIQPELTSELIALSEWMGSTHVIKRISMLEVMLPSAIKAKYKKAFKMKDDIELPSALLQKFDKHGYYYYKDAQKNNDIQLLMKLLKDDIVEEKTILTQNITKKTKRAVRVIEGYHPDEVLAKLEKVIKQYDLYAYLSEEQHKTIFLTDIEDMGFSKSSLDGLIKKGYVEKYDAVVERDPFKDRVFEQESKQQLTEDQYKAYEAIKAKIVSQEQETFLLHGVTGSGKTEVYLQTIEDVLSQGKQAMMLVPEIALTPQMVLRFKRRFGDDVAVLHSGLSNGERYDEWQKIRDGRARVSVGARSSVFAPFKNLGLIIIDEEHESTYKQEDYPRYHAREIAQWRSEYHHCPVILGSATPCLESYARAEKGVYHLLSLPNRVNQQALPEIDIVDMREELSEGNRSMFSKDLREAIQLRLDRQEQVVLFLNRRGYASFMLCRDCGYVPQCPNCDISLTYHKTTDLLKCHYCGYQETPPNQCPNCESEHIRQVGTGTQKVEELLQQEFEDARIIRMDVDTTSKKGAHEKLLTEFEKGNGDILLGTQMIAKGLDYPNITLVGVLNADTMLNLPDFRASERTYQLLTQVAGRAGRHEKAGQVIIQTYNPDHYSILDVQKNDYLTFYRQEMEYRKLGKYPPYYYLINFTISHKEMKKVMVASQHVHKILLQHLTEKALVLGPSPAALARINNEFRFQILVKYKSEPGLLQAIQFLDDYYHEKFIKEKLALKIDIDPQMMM

SaPriA (PriA helicase) [2] = biological target: T1, SaPriA (PriA helicase); experiment: vanadate-sensitive colorimetric ATPase assay, single concentration of […]; assay type: biochemical; details: read-out: %

Row | Kd (SaPriA (PriA helicase) [1]) [µM] | activity at 35 µM (SaPriA (PriA helicase) [2]) [%] | Compound
1 | 9.1 ± 3.2 | – | O=c1c(O)c(-c2ccc(O)cc2)oc2cc(O)cc(O)c12 [kaempferol]
2 | – | 69 | O=c1c(O)c(-c2cc(O)c(O)c(O)c2)oc2cc(O)cc(O)c12 [myricetin]
